The results in this text go back to publication PMC7248975, “Sigma-1 Receptor Positron Emission Tomography: A New Molecular Imaging Approach Using (S)-(−)-[^18F]Fluspidine in Glioblastoma” (Molecules, 2020).

The target of experiment [1] is T1, sigma-1 receptor (sig1R) (Homo sapiens, UniProt Q99720).
T1 construct: gene SIGMAR1; U87-MG cells
The experiment can be described thus: radioligand binding and displacement of (+)-[3H]pentazocine in U87-MG cells; autoradiography of tumour.

Experiment [2] addresses T2, sigma-1 receptor (sig1R) (Mus musculus, UniProt O55242).
T2 construct: gene Sigmar1; mouse brain cryosections, contralateral striatum
Briefly: homologous radioligand displacement by autoradiography; PET in sig1R-knockout vs control mice. (In general: Loss of bound radioactivity is the signal in a displacement assay; it reports binding, not function.)

T1 sequence (Q99720 whole entry): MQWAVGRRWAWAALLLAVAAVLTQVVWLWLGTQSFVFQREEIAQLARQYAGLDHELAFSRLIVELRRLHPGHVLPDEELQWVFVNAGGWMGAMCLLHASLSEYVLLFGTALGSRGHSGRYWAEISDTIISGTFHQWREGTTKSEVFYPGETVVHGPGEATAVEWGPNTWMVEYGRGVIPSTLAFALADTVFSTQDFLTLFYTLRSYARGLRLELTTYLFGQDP
T2 sequence (O55242 whole entry): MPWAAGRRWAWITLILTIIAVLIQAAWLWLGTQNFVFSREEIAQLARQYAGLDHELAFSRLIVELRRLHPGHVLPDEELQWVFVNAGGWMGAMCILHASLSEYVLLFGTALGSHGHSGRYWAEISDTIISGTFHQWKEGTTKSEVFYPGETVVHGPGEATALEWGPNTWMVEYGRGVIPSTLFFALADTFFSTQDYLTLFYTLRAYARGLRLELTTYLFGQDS

On to `FCC[C@@H]1OC2(CCN(Cc3ccccc3)CC2)c2ccccc21` [(S)-(−)-[^18F]fluspidine], for which the figures for the Kd at sigma-1 receptor (sig1R) [1] and on sigma-1 receptor (sig1R) [2] were 16.7 nM and 17 ± 4.8 nM, respectively.
